Experimental data as given in article PMC10893271, “Polymeric Nanoparticles as Oral and Intranasal Peptide Vaccine Delivery Systems: The Role of Shape and Conjugation” (Vaccines, 2024).
No end group written: not given here.

Biological target: T1, bovine trypsin (Bos taurus, UniProt P00760)
T1 sequence (P00760 24-246): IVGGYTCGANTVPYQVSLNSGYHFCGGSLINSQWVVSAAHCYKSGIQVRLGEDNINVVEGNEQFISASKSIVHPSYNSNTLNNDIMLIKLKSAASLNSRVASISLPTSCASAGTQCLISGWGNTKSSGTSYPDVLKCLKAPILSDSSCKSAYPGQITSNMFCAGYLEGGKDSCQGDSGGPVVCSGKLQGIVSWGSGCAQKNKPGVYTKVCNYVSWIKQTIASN
Assay: In vitro stability against proteolysis
Details: bovine trypsin (1000 U/mL stock, 100 µL) with 1 mM CaCl2 in PBS + 400 µL antigen solution (PJ8 1.25 mg/mL in PBS); 37 °C; HPLC with calibration curve

AKFVAAWTLKAAAQAEDKVKQSREAKKQVEKALKQLEDKVQ-NH2 [PJ8]
time to full degradation by trypsin: ≤ 30 min
